Measurements published in ChEMBL document CHEMBL4387725, “In vitro inhibitory effects of cirsiliol on IL-6-induced STAT3 activation through anti-inflammatory activity” (Bioorg Med Chem Lett, 2019).
Calls of active or inactive are those of the source. No cut-off for these calls is given here.

Tests used:
[1] = biological target: T1, Interleukin-6 receptor subunit beta (Homo sapiens) (UniProt P40189); experiment: Inhibition of IL-6-induced gp130 phosphorylation in human U266 cells at 10 and 20 uM pre-incubated for 1 hr before IL-6 stimulation for 10 to 15 mins by Western blot analysis; type: cell-based
T1 sequence (whole entry): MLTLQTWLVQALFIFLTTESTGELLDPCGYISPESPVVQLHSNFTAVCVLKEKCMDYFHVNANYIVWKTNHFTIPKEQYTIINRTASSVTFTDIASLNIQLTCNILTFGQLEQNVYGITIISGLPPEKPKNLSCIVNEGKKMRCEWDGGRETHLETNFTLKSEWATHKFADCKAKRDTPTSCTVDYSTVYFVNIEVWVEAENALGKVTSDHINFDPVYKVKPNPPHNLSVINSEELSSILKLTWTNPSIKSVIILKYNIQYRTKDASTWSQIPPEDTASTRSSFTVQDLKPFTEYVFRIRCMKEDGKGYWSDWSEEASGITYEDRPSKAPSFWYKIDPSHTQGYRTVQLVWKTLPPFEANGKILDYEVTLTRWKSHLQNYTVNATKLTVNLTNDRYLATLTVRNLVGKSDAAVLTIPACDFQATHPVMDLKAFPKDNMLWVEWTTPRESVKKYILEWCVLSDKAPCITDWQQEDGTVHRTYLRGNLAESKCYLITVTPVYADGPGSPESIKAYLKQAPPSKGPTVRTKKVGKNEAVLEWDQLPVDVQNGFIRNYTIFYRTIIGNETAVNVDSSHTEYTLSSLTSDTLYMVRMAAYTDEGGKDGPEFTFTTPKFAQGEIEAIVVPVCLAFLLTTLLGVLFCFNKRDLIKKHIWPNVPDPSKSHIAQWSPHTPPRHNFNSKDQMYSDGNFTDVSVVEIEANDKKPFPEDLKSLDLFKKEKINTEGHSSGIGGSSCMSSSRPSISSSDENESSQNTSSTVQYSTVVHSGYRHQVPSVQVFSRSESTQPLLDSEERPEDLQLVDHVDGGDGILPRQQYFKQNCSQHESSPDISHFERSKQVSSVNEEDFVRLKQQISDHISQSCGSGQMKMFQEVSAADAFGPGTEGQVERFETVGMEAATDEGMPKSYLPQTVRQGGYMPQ

Hep 3B2 [2] = experiment: Cytotoxicity against human Hep3B cells assessed as cell viability at 1 to 20 uM incubated for 24 hrs by MTT assay; type: cell-based; conditions: hep 3b2, 24 h
Homo sapiens [3] = species: Homo sapiens; experiment: Inhibition of IL-6 binding to human recombinant soluble IL-6R incubated for 2 hrs by solid phase ligand binding assay
Homo sapiens [4] = species: Homo sapiens; experiment: Inhibition of IL-6-induced ERK phosphorylation at Tyr202/204 residues in human U266 cells at 10 to 20 uM pre-incubated for 1 hr before IL-6 stimulation for 10 to 15 mins by Western blot analysis; type: cell-based
[5] = biological target: Signal transducer and activator of transcription 3 (Homo sapiens) (UniProt P40763); experiment: Inhibition of IL6-induced STAT3 phosphorylation in human Hep3B cells incubated for 12 hrs in presence of IL6 by luciferase reporter gene assay; type: cell-based
[6] = biological target: Signal transducer and activator of transcription 3 (Homo sapiens) (UniProt P40763); experiment: Inhibition of IL-6-induced pSTAT3 nuclear translocation in human Hep3B cells at 10 and 20 uM pre-incubated for 1 hr before IL-6 stimulation for 30 mins by DAPI staining based immunofluorescence microscopy; type: cell-based
Hep 3B2 [7] = experiment: Inhibition of IL-6-induced ICAM1 gene expression in human Hep3B cells pre-incubated for 1 hr before IL-6 stimulation for 6 hrs by RT-PCR method; type: functional, cell-based
Hep 3B2 [8] = experiment: Inhibition of IL-6-induced SOCS3 gene expression in human Hep3B cells pre-incubated for 1 hr before IL-6 stimulation for 6 hrs by RT-PCR method; type: functional, cell-based
[9] = biological target: Tyrosine-protein kinase JAK2 (Homo sapiens) (UniProt O60674); experiment: Inhibition of IL-6-induced JAK2 phosphorylation at Tyr1007/1008 residues in human U266 cells at 10 and 20 uM pre-incubated for 1 hr before IL-6 stimulation for 10 to 15 mins by Western blot analysis; type: cell-based
Hep 3B2 [10] = experiment: Inhibition of IL-6-induced IL-1beta gene expression in human Hep3B cells pre-incubated for 1 hr before IL-6 stimulation for 6 hrs by RT-PCR method; type: functional, cell-based
Hep 3B2 [11] = experiment: Inhibition of IL-6-induced CRP gene expression in human Hep3B cells pre-incubated for 1 hr before IL-6 stimulation for 6 hrs by RT-PCR method; type: functional, cell-based
[12] = biological target: Signal transducer and activator of transcription 3 (Homo sapiens) (UniProt P40763); experiment: Inhibition of IL-6-induced pSTAT3 nuclear translocation in human U266 cells at 20 uM pre-incubated for 1 hr before IL-6 stimulation for 30 mins by DAPI staining based immunofluorescence microscopy; type: cell-based
[13] = biological target: Signal transducer and activator of transcription 3 (Homo sapiens) (UniProt P40763); experiment: Inhibition of IL-6-induced STAT3 phosphorylation at Tyr 705 residue in human U266 cells at 10 to 20 uM pre-incubated for 1 hr before IL-6 stimulation for 15 mins by Western blot analysis; type: cell-based

Signal transducer and activator of transcription 3 (Homo sapiens), sequence (P40763 whole entry): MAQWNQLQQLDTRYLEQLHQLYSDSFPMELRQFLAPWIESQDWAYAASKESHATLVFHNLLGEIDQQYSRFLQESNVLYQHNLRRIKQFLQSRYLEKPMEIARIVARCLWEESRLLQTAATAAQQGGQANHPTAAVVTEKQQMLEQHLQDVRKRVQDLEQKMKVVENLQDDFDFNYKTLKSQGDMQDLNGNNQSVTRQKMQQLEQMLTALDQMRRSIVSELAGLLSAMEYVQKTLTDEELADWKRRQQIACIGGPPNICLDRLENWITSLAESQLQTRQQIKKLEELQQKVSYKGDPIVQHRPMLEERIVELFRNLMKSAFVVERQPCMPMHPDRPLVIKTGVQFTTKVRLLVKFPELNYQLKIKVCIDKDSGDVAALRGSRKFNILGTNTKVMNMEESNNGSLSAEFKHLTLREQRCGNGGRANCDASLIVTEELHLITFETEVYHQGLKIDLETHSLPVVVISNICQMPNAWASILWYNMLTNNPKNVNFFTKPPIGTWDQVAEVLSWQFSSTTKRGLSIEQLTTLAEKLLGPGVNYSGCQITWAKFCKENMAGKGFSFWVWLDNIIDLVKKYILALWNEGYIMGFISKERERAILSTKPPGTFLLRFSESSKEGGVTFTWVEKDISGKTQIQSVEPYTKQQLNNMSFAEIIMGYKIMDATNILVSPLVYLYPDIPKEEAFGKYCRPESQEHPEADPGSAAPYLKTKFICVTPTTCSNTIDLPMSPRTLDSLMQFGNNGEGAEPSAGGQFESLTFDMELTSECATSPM
Tyrosine-protein kinase JAK2 (Homo sapiens), sequence (O60674 whole entry): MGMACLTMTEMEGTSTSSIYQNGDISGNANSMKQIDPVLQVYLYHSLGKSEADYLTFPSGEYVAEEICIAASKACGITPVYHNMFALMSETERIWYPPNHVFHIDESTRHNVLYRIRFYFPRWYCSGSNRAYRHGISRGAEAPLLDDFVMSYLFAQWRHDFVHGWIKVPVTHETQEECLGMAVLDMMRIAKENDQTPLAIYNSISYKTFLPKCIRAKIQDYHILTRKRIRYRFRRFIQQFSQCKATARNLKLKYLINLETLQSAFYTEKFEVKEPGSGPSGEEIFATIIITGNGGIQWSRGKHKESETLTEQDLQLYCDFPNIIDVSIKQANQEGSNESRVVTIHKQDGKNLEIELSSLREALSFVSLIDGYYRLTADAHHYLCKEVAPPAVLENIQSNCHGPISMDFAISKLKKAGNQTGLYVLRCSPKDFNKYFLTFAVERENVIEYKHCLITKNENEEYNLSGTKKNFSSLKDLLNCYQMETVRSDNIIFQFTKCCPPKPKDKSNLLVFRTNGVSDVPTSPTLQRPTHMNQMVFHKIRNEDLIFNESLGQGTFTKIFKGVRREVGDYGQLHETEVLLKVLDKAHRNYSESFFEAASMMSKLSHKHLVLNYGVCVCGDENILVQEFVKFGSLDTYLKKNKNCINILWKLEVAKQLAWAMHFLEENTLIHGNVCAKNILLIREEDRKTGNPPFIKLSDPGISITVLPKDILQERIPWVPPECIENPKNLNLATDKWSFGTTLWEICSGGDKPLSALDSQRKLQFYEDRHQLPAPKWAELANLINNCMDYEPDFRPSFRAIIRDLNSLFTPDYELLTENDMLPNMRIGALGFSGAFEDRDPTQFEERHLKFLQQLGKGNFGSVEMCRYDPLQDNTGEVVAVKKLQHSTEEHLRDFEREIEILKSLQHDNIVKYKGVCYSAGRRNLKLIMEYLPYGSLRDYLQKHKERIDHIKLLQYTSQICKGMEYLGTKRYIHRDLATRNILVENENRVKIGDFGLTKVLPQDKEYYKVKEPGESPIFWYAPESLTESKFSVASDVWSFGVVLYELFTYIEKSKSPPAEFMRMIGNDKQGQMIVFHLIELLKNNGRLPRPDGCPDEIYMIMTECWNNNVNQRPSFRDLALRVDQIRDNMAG

COc1cc2oc(-c3ccc(O)c(O)c3)cc(=O)c2c(O)c1OC [CIRSILIOL]
inhibition [1]: Dose-dependent effect
Activity (Hep 3B2 [2]): Non-Toxic
inhibition (Homo sapiens [3]): inactive
inhibition (Homo sapiens [4]): Active
inhibition [5]: Dose-dependent effect
inhibition [6]: Active
inhibition (Hep 3B2 [7]): Dose-dependent effect
inhibition (Hep 3B2 [8]): Dose-dependent effect
inhibition [9]: Dose-dependent effect
inhibition (Hep 3B2 [10]): Dose-dependent effect
inhibition (Hep 3B2 [11]): Dose-dependent effect
inhibition [12]: Active
inhibition [13]: Active
